In patent US11666636B2, “GLP-1R agonists and uses thereof” (priority 2017, dated 2023):

What was measured:
[1] = 6 days after infection; vs vehicle
[2] = tested on: liver inflammation, aortic atherosclerosis; details: rodent model; reported in literature; cited from earlier work
[3] = tested on: serum inflammatory cytokines; details: rodent model; reported in literature; cited from earlier work

Row | Compound | plasma glucose levels [1] | plasma insulin levels [1] | aortic atherosclerosis [2] | liver inflammation [2] | serum inflammatory cytokines during LPS-induced endotoxemia [3]
1 | CCCCCCCCCCCCCCCC(=O)N[C@@H](CCC(=O)NCCCC[C@H](NC(=O)[C@H](C)NC(=O)[C@H](C)NC(=O)[C@H](CCC(N)=O)NC(=O)CNC(=O)[C@H](CCC(=O)O)NC(=O)[C@H](CC(C)C)NC(=O)[C@H](Cc1ccc(O)cc1)NC(=O)[C@H](CO)NC(=O)[C@H](CO)NC(=O)[C@@H](NC(=O)[C@H](CC(=O)O)NC(=O)[C@H](CO)NC(=O)[C@@H](NC(=O)[C@H](Cc1ccccc1)NC(=O)[C@@H](NC(=O)CNC(=O)[C@H](CCC(=O)O)NC(=O)[C@H](C)NC(=O)[C@@H](N)Cc1cnc[nH]1)[C@@H](C)O)[C@@H](C)O)C(C)C)C(=O)N[C@@H](CCC(=O)O)C(=O)N[C@@H](Cc1ccccc1)C(=O)N[C@H](C(=O)N[C@@H](C)C(=O)N[C@@H](Cc1c[nH]c2ccccc12)C(=O)N[C@@H](CC(C)C)C(=O)N[C@H](C(=O)N[C@@H](CCCNC(=N)N)C(=O)NCC(=O)N[C@@H](CCCNC(=N)N)C(=O)NCC(=O)O)C(C)C)[C@@H](C)CC)C(=O)O [GLP-1R agonist, liraglutide] | no statistically significant changes | no statistically significant changes | – | – | –
2 | exendin-4 | – | – | reduced | reduced | reduced
